This passage reports EC50 results from ChEMBL document CHEMBL5360647, “A Systematic Survey of Reversibly Covalent Dipeptidyl Inhibitors of the SARS-CoV-2 Main Protease” (J Med Chem, 2023).

Molecules are shown by their SMILES.

In this test the test system is SARS-CoV-2. Kind of test: Antiviral activity against SARS-CoV-2 USA-WA1/2020 infected in Vero E6 cells assessed as reduction in viral plaque formation incubated for 3 days by plaque reduction neutralization assay. It counts as functional, organism-based. As to conditions: Severe acute respiratory syndrome coronavirus 2, USA-WA1/2020, Vero C1008, 72 h.
By EC50 is commonly meant the midpoint of the concentration-response curve. As for `CC1(C)[C@@H]2[C@@H](C(=O)N[C@H](C=O)C[C@@H]3CCNC3=O)N(C(=O)OCc3ccccc3)C[C@@H]21`, the EC50 was determined as 1500 nM.

Consider `O=C[C@H](C[C@@H]1CCNC1=O)NC(=O)C1CC2(CCCC2)CN1C(=O)OCc1ccccc1` (stereo partly drawn), for which the EC50 was found to be 370 nM.

Take `O=C[C@H](C[C@@H]1CCNC1=O)NC(=O)C1CC2(CCCCC2)CN1C(=O)OCc1ccccc1` (stereo partly drawn): the EC50 is 370 nM.
